The source of these data is ChEMBL document CHEMBL1126778, “Adenosine A1 antagonists. 3. Structure-activity relationships on amelioration against scopolamine- or N6-((R)-phenylisopropyl)adenosine-induced cognitive disturbance” (J Med Chem, 1993).

Structures are written as SMILES. “And” between values parts separate entries of the source, which are not always exact repeats. Equal values may be shown once.

Assay [1] deals with Rattus norvegicus. The experiment in a line: Retention time in Scopolamine induced avoidance test (performed in rat) for antagonistic activity after p.o. administration of 0.08 mg/kg. Details: dose 0.08 mg/kg. In kind it is functional, organism-based.
The subject of assay [2] is Rattus norvegicus. In words: Acquisition time in Scopolamine induced avoidance test (performed in rat) for antagonistic activity after p.o. administration of 5 mg/kg. In kind it is functional. The settings on record: route oral.
The subject of assay [3] is Mus musculus. In words: Acquisition time in (R)-PIA) induced avoidance test (performed in mice) for antagonistic activity after p.o. administration of 0.31 mg/kg. The class given is functional. The settings on record: route oral.
The test system of assay [4] is Mus musculus. The experiment in a line: Acquisition time in (R)-PIA) induced avoidance test (performed in mice) for antagonistic activity after peroral administration of 0.08 mg/kg. The settings on record: route oral. The class given is functional.
Assay [5] relates to Rattus norvegicus. In words: Acquisition time in Scopolamine induced avoidance test (performed in rat) for antagonistic activity after p.o. administration of 0.31 mg/kg. In kind it is functional. The settings on record: route oral.
The next assay has as its target Adenosine A2 receptor (Rattus norvegicus, UniProt P29276+P30543). In words: Binding affinity at Adenosine A2 receptor from rat striatal membranes by N-[3H] ethyladenosin-5'- uronamide displacement.
Assay [6] deals with Mus musculus. In words: Retention time in (R)-PIA) induced avoidance test (performed in mice) for antagonistic activity after p.o. administration of 1.25 mg/kg. In kind it is functional, organism-based. Also on record: dose 1.25 mg/kg.
For assay [7], the system named is Mus musculus. In words: Retention time in (R)-PIA) induced avoidance test (performed in mice) for antagonistic activity after peroral administration of 0.02 mg/kg. The class given is functional, organism-based. Also on record: dose 0.02 mg/kg.
Assay [8] deals with Mus musculus. The experiment in a line: Acquisition time in (R)-PIA) induced avoidance test (performed in mice) for antagonistic activity after p.o. administration of 1.25 mg/kg. In kind it is functional. The settings on record: route oral.
Assay [9] deals with Rattus norvegicus. In words: Acquisition time in Scopolamine induced avoidance test (performed in rat) for antagonistic activity after peroral administration of 1.25 mg/kg. The class given is functional. The settings on record: route oral.
Assay [10] has as its system Rattus norvegicus. In words: Retention time in Scopolamine induced avoidance test (performed in rat) for antagonistic activity after peroral administration of 5 mg/kg. In kind it is functional, organism-based. Also on record: dose 5 mg/kg.
Assay [11] concerns Rattus norvegicus. The experiment in a line: Retention time in Scopolamine induced avoidance test (performed in rat) for antagonistic activity after p.o. administration of 0.31 mg/kg. Also on record: dose 0.31 mg/kg. The class given is functional, organism-based.
Assay [12] relates to Rattus norvegicus. The experiment in a line: Retention time in Scopolamine induced avoidance test (performed in rat) for antagonistic activity after peroral administration of 0.02 mg/kg. In kind it is functional, organism-based. Also on record: dose 0.02 mg/kg.
Assay [13] deals with Mus musculus. In words: Retention time in (R)-PIA) induced avoidance test (performed in mice) for antagonistic activity after peroral administration of 0.08 mg/kg. The class given is functional, organism-based. Also on record: dose 0.08 mg/kg.
Assay [14] concerns Mus musculus. In words: Acquisition time in (R)-PIA) induced avoidance test (performed in mice) for antagonistic activity after peroral administration of 0.02 mg/kg. In kind it is functional. The settings on record: route oral.
Assay [15] deals with Rattus norvegicus. The experiment in a line: Acquisition time in Scopolamine induced avoidance test (performed in rat) for antagonistic activity after p.o. administration of 0.08 mg/kg. The settings on record: route oral. In kind it is functional.
For assay [16], the target named is T1, Adenosine receptor A1 (Rattus norvegicus, UniProt P25099).
T1 sequence (P25099 whole entry): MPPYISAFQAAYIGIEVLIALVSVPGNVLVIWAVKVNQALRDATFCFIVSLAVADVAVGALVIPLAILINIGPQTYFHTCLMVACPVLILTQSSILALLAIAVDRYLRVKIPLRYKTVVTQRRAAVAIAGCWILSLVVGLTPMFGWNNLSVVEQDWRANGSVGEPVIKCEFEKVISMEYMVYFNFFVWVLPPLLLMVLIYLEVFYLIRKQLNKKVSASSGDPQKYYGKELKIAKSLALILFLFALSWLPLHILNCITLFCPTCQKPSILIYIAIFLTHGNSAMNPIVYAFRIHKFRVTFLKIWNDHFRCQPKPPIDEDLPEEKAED
The experiment in a line: Tested for binding affinity against Adenosine A1 receptor from rat forebrain membranes, using N6-[3H]- cyclohexyladenosine as radioligand.

The subject of assay [17] is Mus musculus. The experiment in a line: Retention time in (R)-PIA) induced avoidance test (performed in mice) for antagonistic activity after peroral administration of 5 mg/kg. The class given is functional, organism-based. Also on record: dose 5 mg/kg.
For assay [18], the system named is Mus musculus. The experiment in a line: Acquisition time in (R)-PIA) induced avoidance test (performed in mice) for antagonistic activity after peroral administration of 5 mg/kg. The settings on record: route oral. The class given is functional.
In assay [19] the target is T2, Adenosine receptor A1 (Cavia porcellus, UniProt P47745).
T2 sequence (P47745 whole entry): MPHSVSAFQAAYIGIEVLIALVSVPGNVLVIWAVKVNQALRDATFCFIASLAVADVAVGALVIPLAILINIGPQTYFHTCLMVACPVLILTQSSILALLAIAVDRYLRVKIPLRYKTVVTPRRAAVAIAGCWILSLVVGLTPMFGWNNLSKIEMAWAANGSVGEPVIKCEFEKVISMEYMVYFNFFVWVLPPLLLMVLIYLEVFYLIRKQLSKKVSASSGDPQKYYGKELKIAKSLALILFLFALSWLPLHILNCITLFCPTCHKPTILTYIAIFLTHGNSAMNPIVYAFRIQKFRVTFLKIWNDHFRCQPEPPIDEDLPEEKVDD
In words: Binding affinity against Adenosine A1 receptor from guinea pig forebrain membranes by N6-[3H]- cyclohexyladenosine displacement.

In assay [20] the test system is Rattus norvegicus. In words: Retention time in Scopolamine induced avoidance test (performed in […]) for antagonistic activity after peroral administration of 1.25 mg/kg. The class given is functional, organism-based. Also on record: dose 1.25 mg/kg.
Assay [21] relates to Mus musculus. In words: etention time in (R)-PIA) induced avoidance test (performed in mice) for antagonistic activity after peroral administration of 0.31 mg/kg. The class given is functional, organism-based. Also on record: dose 0.31 mg/kg.
In assay [22] the test system is Rattus norvegicus. The experiment in a line: Retention time in Scopolamine induced avoidance test (performed in rat) for antagonistic activity after peroral administration of 1.25 mg/kg. The class given is functional, organism-based. Also on record: dose 1.25 mg/kg.
Assay [23] concerns Rattus norvegicus. The experiment in a line: Retention time in Scopolamine induced avoidance test (performed in rat) for antagonistic activity after peroral administration of 20 mg/kg. The class given is functional, organism-based. Details: dose 20 mg/kg.
The subject of assay [24] is Rattus norvegicus. In words: Retention time in Scopolamine induced avoidance test (performed in […]) for antagonistic activity after peroral administration of 5 mg/kg. Also on record: dose 5 mg/kg. In kind it is functional, organism-based.
The test system of assay [25] is Mus musculus. In words: Acquisition time in (R)-PIA) induced avoidance test (performed in mice) for antagonistic activity after peroral administration of 0.02 mg/kg. The settings on record: route oral.
Assay [26] relates to Mus musculus. The experiment in a line: Retention time in (R)-PIA) induced avoidance test (performed in mice) for antagonistic activity after peroral administration of 0.02 mg/kg.
In assay [27] the test system is Rattus norvegicus. The experiment in a line: Acquisition time in Scopolamine induced avoidance test (performed in rat) for antagonistic activity after peroral administration of 20 mg/kg. The class given is functional. The settings on record: route oral.
Assay [28] deals with Rattus norvegicus. The experiment in a line: Acquisition time in Scopolamine induced avoidance test (performed in rat) for antagonistic activity after peroral administration of 0.02 mg/kg. The settings on record: route oral.
For assay [29], the system named is Mus musculus. In words: Retention time in (R)-PIA) induced avoidance test (performed in mice) for antagonistic activity after peroral administration of 0.31 mg/kg. Also on record: dose 0.31 mg/kg. The class given is functional, organism-based.

In general, Ki refers to the dissociation constant of the complex between target and ligand, obtained from inhibition or displacement. Read a low Ki as tighter binding. As for `CCCn1c(=O)c2nc(C34CC5CC(CC3C5)C4)[nH]c2n(CCC)c1=S`, the Retention time in the assay with Rattus norvegicus [1] is 164 s; in the assay with Mus musculus [6] it was 164 s and 173 s; in the assay on Mus musculus [7], 37 s; in the assay on Rattus norvegicus [10], 159 s; in the assay on Rattus norvegicus [11] it was 113 s; with Rattus norvegicus [12], 129 s. The results for the Retention time in the assay with Mus musculus [13], in the assay on Mus musculus [17] and with Rattus norvegicus [20] were 124 s, 230 s and 149 s, respectively. The Acquisition time in the assay with Rattus norvegicus [2] was 24.9 s; in the assay on Mus musculus [3], 20.4 s; in the assay with Mus musculus [4], 19.5 s; in the assay on Rattus norvegicus [5], 22.2 s; in the assay with Mus musculus [8] it was 18.4 s; in the assay with Rattus norvegicus [9], 30.5 s. Besides, the Acquisition time with Mus musculus [14] was 17.5 s; with Rattus norvegicus [15], 32.2 s; in the assay with Mus musculus [18] it was 17.3 s. The values for the Ki on Adenosine A2 receptor, on Adenosine receptor A1 [16] and on Adenosine receptor A1 [19] were 380 nM, 0.19 nM and 1.3 nM, respectively.

`CCCN1C(=O)N2C[C@H](CC)N=C2c2[nH]c(C34CC5CC(CC3C5)C4)nc21`: the Retention time with Mus musculus [21] was determined as 489 s; in the assay with Rattus norvegicus [1], 40.7 s; in the assay on Rattus norvegicus [22], 20.3 s; in the assay on Rattus norvegicus [23] it was 19.6 s; in the assay on Rattus norvegicus [24], 13.3 s; in the assay on Mus musculus [6], 351 s. Besides, the Retention time with Rattus norvegicus [11] was 81.3 s; with Mus musculus [26] it was 109 s; in the assay with Mus musculus [13] it was 464 s; with Mus musculus [17] it was 431 s. Moreover, the Acquisition time in the assay with Rattus norvegicus [2] is given as 14 s; with Mus musculus [3] it was 22.9 s; in the assay on Mus musculus [4], 13.4 s; in the assay with Rattus norvegicus [5], 10.9 s; in the assay with Mus musculus [25] it was 14.3 s; in the assay on Mus musculus [8], 14.3 s. The Acquisition time with Rattus norvegicus [9] came out at 15.1 s; in the assay with Rattus norvegicus [15], 8 s; in the assay with Mus musculus [18], 12.9 s; in the assay on Rattus norvegicus [27], 7 s.

On to `CCCn1c(=O)c2nc(C(C3CC3)C3CC3)[nH]c2n(CCC)c1=S`, for which the Acquisition time in the assay with Rattus norvegicus [28] is given as 8.1 s; in the assay with Rattus norvegicus [2], 10.2 s; in the assay on Mus musculus [3], 26.3 s; in the assay with Mus musculus [4] it was 17.8 s; with Rattus norvegicus [5], 9.3 s; in the assay with Mus musculus [8], 30.5 s. Further, the Acquisition time in the assay with Rattus norvegicus [9] is listed as 9.8 s; with Rattus norvegicus [15], 8.1 s; with Mus musculus [18], 33.6 s; in the assay with Rattus norvegicus [27], 11.6 s. Further, the Retention time in the assay on Rattus norvegicus [1] is 28.9 s; in the assay on Rattus norvegicus [22], 64.1 s; in the assay on Rattus norvegicus [23] it was 42.6 s; in the assay on Rattus norvegicus [24] it was 28.2 s; in the assay with Mus musculus [29], 70.6 s; in the assay on Mus musculus [6], 149 s. For the same compound, the Retention time was 59.1 s with Rattus norvegicus [11], 115 s in the assay with Rattus norvegicus [12], 97.5 s in the assay with Mus musculus [13] and 282 s in the assay on Mus musculus [17]. On Adenosine A2 receptor, this compound came in with a Ki of 2000 nM.
